Assay results taken from PMC5660078, “Cysteinyl-tRNA synthetase governs cysteine polysulfidation and mitochondrial bioenergetics” (Nature Communications, 2017).

Experiments:
EcCARS = target: T1, EcCARS (Escherichia coli, UniProt P21888); assay: HPE-IAM labeling LC-ESI-MS/MS of CysSSH formed, Michaelis-Menten fit; type: biochemical; details: persulfide synthase reaction; 50 mM HEPES pH 7.5, 25 mM KCl, 15 mM MgCl2, 37 °C, 30 s
T1 construct: gene cysS
T1 sequence (P21888 1-461): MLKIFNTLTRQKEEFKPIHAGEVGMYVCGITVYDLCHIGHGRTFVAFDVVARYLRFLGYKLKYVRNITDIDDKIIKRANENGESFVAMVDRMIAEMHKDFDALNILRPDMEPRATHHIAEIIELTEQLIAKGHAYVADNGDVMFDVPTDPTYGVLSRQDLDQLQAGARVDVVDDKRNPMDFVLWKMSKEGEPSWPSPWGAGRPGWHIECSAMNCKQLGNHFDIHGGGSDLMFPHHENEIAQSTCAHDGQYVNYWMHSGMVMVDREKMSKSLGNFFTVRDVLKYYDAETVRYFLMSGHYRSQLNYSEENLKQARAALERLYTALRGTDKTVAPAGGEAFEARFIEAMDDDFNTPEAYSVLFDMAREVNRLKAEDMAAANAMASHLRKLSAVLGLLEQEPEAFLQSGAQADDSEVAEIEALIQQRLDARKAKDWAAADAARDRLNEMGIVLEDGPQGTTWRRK

mouse CARS1 = target: T2, mouse CARS1 (Mus musculus, UniProt Q9ER72); assay: HPE-IAM labeling LC-MS/MS of CysSSH and CysSSSH; type: biochemical; details: 25 µM L-cysteine, 100 µM PLP, 37 °C, 2 h
T2 sequence (Q9ER72 2-831): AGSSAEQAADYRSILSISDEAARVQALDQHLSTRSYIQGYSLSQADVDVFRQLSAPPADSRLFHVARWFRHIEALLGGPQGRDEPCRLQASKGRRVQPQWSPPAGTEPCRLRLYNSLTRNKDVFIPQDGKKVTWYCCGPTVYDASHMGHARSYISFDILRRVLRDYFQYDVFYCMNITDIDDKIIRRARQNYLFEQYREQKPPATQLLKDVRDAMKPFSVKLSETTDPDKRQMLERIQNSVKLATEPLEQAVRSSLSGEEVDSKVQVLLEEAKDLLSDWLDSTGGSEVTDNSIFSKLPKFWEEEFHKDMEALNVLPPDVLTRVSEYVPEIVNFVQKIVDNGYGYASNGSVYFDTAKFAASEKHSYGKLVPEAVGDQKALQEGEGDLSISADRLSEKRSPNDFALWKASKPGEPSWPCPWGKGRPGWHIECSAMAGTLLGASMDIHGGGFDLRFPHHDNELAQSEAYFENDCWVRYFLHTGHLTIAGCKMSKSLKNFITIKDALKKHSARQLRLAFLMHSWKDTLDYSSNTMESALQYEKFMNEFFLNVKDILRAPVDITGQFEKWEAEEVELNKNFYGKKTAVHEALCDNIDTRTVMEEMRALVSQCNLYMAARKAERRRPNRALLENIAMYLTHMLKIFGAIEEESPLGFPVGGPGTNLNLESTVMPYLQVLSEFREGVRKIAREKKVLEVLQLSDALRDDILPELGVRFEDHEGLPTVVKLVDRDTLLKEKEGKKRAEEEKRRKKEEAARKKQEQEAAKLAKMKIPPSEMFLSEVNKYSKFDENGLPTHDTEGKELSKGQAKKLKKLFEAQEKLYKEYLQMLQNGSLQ

human CARS2 = target: T3, human CARS2 (Homo sapiens, UniProt Q9HA77); assay: DNPH derivatization, LC-ESI-MS/MS of bound PLP; type: binding; details: 37 °C, 1 h, 0-100 µM PLP
T3 sequence (Q9HA77 1-564): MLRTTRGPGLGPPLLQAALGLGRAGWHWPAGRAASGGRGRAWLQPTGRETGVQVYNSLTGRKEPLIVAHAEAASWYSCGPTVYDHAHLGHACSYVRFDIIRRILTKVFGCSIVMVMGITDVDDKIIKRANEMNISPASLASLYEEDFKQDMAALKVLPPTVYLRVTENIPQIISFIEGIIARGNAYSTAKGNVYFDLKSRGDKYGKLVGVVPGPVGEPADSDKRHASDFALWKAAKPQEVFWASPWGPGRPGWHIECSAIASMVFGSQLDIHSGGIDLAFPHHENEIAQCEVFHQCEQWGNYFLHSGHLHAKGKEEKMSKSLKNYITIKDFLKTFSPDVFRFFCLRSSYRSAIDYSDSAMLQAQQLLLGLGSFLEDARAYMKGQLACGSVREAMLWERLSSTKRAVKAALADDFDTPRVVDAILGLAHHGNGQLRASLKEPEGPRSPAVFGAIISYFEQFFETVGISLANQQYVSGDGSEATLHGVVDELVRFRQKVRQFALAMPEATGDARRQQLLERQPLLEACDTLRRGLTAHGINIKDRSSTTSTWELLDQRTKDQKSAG

| SMILES | Km (EcCARS) | HPE-IAM labeling LC-MS/MS of CysSSH and CysSSSH (mouse CARS1) | DNPH derivatization, LC-ESI-MS/MS of bound PLP (human CARS2) |
| --- | --- | --- | --- |
| N[C@@H](CS)C(=O)O [L-cysteine] | EcCARS is very efficient in producing CysSSH |  |  |
| Cc1ncc(COP(=O)(O)O)c(C=O)c1O [pyridoxal phosphate] |  | PLP-dependent CysSSH and CysSSSH biosynthesis by mouse CARS1 and human CARS2 | Precisely quantitative analysis for PLP bound to human CRAS2 |
